One may read the solubility as the dissolved amount per volume that the medium holds.

Series [1] in a line: Hydrolysis to metronidazole in human plasma (in vitro). Format: in vitro ADME.
Series [2] can be described thus: Hydrolysis to metronidazole in 0.05M phosphate buffer pH 7.4. The note with it: pH 7.4, 37° C, read-out: t1/2 in buffer. Type of series: physicochemical.
The conditions of series [3]: cited from earlier work.
For series [4] the following is noted: after parenteral administration; cited from earlier work.
For series [5] the following is noted: compound itself (uncleaved ester); cited from earlier work.
The nature of series [6]: Intravenous cross-over study in two beagle dogs, plasma concentrations of ester, metronidazole and metabolites. Type of series: in vivo. An excerpt:
(§1) To test the assumption that the N,N-dimethylglycine ester would be a suitable water-soluble prodrug of metronidazole for parenteral administration, metronidazole and its N,N-dimethylglycine ester were given intravenously to two beagle dogs in a cross-over study.

Series [7] is described as follows: Initial rate of formation of metronidazole and time to begin precipitation, calculated at 23° C (Table 2). Format: physicochemical. The procedure: Since t10% for the ester is 73 h at 23° C., the results given in Table 2 indicate that the stability of aqueous solutions of the prodrug ester will only be limited by the potential precipitation of metronidazole formed upon hydrolysis in those cases where the concentration of the ester in aqueous solutions exceeds about 20%.

Series [8] is described as follows: Local tolerance after intravenous injection in dogs. Type of series: in vivo, beagle dogs.
Source text: as §1

Series [9] is described as follows: Solubility in water / aqueous solution. Type of series: physicochemical.
Series [10] in a line: pH of aqueous solutions of the hydrochloride. Type of series: physicochemical. The settings on record: 1-20% w/v aqueous solutions.
Series [11] is described as follows: Hydrolysis in 80% dog plasma in vitro. Format: in vitro ADME. The note with it: 80% plasma, 37° C. An excerpt: As noted below the rapid and quantitative formation of metronidazole seen after administration of the ester indicate, however, that the rate of ester disappearance is solely or predominantly due to the hydrolytic conversion.
Series [12] is described as follows: Effect of temperature on rate of hydrolysis in acetate buffer pH 4.4 (Arrhenius plot). Type of series: physicochemical. Here is the method:
The effect of temperature on the rate of hydrolysis of metronidazole N,N-dimethylglycinate was studied in 0.05M acetate buffer of pH 4.4 over the temperature range 23°-50° C.
The results obtained are illustrated in FIG. 1 of the drawings. […] Based on the slope of said plot an activation energy of 17.7 kcal mole^-1 was calculated. Based on said Arrhenius type plot the stability of aqueous solutions of the ester may be predicted at various temperatures.

The conditions of series [13]: compared with metronidazole at the same dosage level; cited from earlier work.
For series [14] the following is noted: published data; cited from earlier work.
Where [15] appears, read: 80% plasma, 80% human plasma, pH 7.4, 37° C, read-out: t1/2 in human plasma.

Values joined by “and” are separate entries in the source; they are usually repeats but may differ in a detail not shown here. Equal entries are not always repeated. Structures can show the parent of a compound that is named as a salt. Where two headings read alike, the source gives them in different places. Bounds are passed on as bounds.

Turning to `Cc1ncc([N+](=O)[O-])n1CCOC(=O)CCN`, the values for the half-life in series [1] (setting [15]) and in [2] were 3.45 h and 5.25 h, respectively.
For the compound `Cc1ncc([N+](=O)[O-])n1CCOC(=O)CCN(C)C`, the values for the half-life in series [1] (setting [15]) and in [2] were 0.767 h and 0.867 h, respectively.
Regarding `Cc1ncc([N+](=O)[O-])n1CCOC(=O)CCCN(C)C`, the half-life in [1] (setting [15]) came out at 5.57 h; in [2], 9.67 h.
Turning to `Cc1ncc([N+](=O)[O-])n1CCOC(=O)CCC(=O)O`, in series [3] (prior art esters), the “solubility in water (in words)” value is “has the required solubility in water”. In addition, the “cleavage of the ester in blood serum (in words)” value in series [4] was “very slow”. The “microbiological activity (in words)” value in series [5] is “microbiologically inactive”.
Consider `Cc1ncc([N+](=O)[O-])n1CC(=O)O` [2-Methyl-5-nitroimidazole-1-aceticacid], for which the “plasma concentration of metabolite (in words)” value in series [6] (dogs, i.v. ester hydrochloride (30 mg/kg metronidazole equivalents) or metronidazole (10 mg/kg)) is given as “could not be detected in measurable concentrations”.
Turning to `Cc1ncc([N+](=O)[O-])n1CCOC(=O)CN1CCN(C)CC1` [4-Methyl-1-piperazinoacetate], the results for the half-life in series [1] (setting [15]) and in series [2] were 8.72 h and 28.7 h, respectively.
The matching figures for `Cc1ncc([N+](=O)[O-])n1CCOC(=O)CN` [Glycinate]: 0.683 h and 1.92 h.
Consider `Cc1ncc([N+](=O)[O-])n1CCOC(=O)CN(C)C` [Metronidazole N,N-dimethylglycinate hydrochloride], for which the “(d[M]/dt)i, apparent zero-order initial rate of formation of metronidazole” value in series [7] (50 mg ml^-1 hydrochloride) was 0.042 mg/mL/h; in [7] (100 mg ml^-1 hydrochloride), 0.084 mg/mL/h; in series [7] (200 mg ml^-1 hydrochloride), 0.168 mg/mL/h; in [7] (300 mg ml^-1 hydrochloride), 0.252 mg/mL/h. The “tpt, time for metronidazole to begin precipitation” value in series [7] (50 mg ml^-1 hydrochloride) is given as 238 h; in [7] (100 mg ml^-1 hydrochloride) it was 119 h; in series [7] (200 mg ml^-1 hydrochloride), 60 h; in [7] (300 mg ml^-1 hydrochloride) it was 40 h. In series [6] (i.v., dogs), the “conversion to metronidazole (in words)” value is “rapidly and completely converted to metronidazole”. In series [8], the “signs of pain or local toxicity” value is on record as “No signs of pain or local toxicity”. Besides, the solubility in series [9] (water, 20° C, read-out: solubility in water) was > 500000 µg/mL and > 1.7e+06 µM. For the same compound, in [10], the “pH of the 1-20% w/v solutions” value is reported as 4.4-4.6.
Take `CCCNCC(=O)OCCn1c([N+](=O)[O-])cnc1C` [N--Propylglycinate]: the values for the half-life in series [1] (setting [15]) and in series [2] were 0.133 h and 1.5 h, respectively.
As for `Cc1ncc([N+](=O)[O-])n1CCOC(=O)CN(C)C` [metronidazole N,N-dimethylglycinate], the half-life was 0.2 h in [1] (setting [15]); 0.15 to 0.2 h in series [1] (human plasma or blood, in vitro, read-out: half-life of hydrolysis in human plasma or blood); 0.417 h in [11]; 4.17 h in series [2]. The “half-life of disappearance of the ester in dogs” value in series [6] (i.v. hydrochloride, 30 mg/kg metronidazole equivalents, one value per dog, 30 mg/kg) is “approximately 3 min and ~7 min”. For the same compound, the “hydrolysis in the dogs (in words)” value in series [6] (i.v., 30 mg/kg metronidazole equivalents) was “hydrolyzed rapidly”. For the same compound, the “pattern of metabolite formation (in words)” value in series [6] (i.v., dogs, compared with injection of metronidazole) is “quite similar to that observed after injection of metronidazole”. Further, the “activation energy of hydrolysis” value in series [12] (0.05M acetate buffer pH 4.4, 23°-50° C, Arrhenius plot) is 17.7 kcal/mol. For the same compound, the “t10% (time in which 10% of the ester is degraded)” value in series [12] (pH 4.4, 4° C) came to 576 h; in series [12] (pH 4.4, 15° C) it was 166 h; in series [12] (pH 4.4, 23° C), 73 h.
Turning to `Cc1ncc([N+](=O)[O-])n1CCO` [metronidazole], the “solubility in an aqueous solution” value in series [3] (background statement) was “about 100 mg/10 ml”. Further, the “solubility augmented by solubilizers” value in series [3] (with gentisic acid (1:4) or with co-solvents (prior art)) is recorded as 500-650 mg/10 ml. Further, the solubility in series [9] (aqueous solution, pH>3, 25° C, read-out: solubility in aqueous solutions) is 10000 µg/mL and 58000 µM.
On to `Cc1ncc([N+](=O)[O-])n1CCOP(=O)(O)O` [phosphate ester], for which the “bioavailability of metronidazole to rats (in words)” value in series [13] was “significantly lower than that obtained with metronidazole at the same dosage level”. Also, the “rate of conversion to metronidazole in vivo (in words)” value in series [14] is on record as “rather slow rate of conversion to metronidazole in vivo”.

The values above are taken from patent US4482722A, “Ester of metronidazole with N,N-dimethylglycine and acid addition salt thereof” (A/S Dumex (Dumex Ltd.), priority 1982, dated 1984).
